In patent publication US10544104B2, “Compositions and methods for treating toxoplasmosis, cryptosporidiosis, and other apicomplexan protozoan related diseases” (University of Washington through its Center for …, priority 2010, dated 2020):
Values belong to the molecule of their own block, whether it stands above or below them.

Experiments:
[1] = target: TgCDPK1 (Toxoplasma gondii, UniProt Q9BJF5); type: biochemical
[2] = in vitro; conditions: human, HCC2998 (HC 2998) colorectal carcinoma cells
[3] = in vitro; conditions: human, CRL8155 human lymphocyte cells
[4] = in vitro; conditions: human, HL-60 human promyelocytic leukemia cells
[5] = in vitro; conditions: human, SF539 glioma-derived cells
[6] = test system: P. falciparum; assay: microbe, parasite or virus in culture; conditions: Plasmodium falciparum, read-out: Proliferation Blocking P. falciparum (EC50, μM)
[7] = test system: human fibroblast; assay: Fibroblast cytotoxicity / replication (Alamar blue); type: cell-based; conditions: concentration at which toxicity (T) was observed

TgCDPK1, sequence (Q9BJF5 1-507): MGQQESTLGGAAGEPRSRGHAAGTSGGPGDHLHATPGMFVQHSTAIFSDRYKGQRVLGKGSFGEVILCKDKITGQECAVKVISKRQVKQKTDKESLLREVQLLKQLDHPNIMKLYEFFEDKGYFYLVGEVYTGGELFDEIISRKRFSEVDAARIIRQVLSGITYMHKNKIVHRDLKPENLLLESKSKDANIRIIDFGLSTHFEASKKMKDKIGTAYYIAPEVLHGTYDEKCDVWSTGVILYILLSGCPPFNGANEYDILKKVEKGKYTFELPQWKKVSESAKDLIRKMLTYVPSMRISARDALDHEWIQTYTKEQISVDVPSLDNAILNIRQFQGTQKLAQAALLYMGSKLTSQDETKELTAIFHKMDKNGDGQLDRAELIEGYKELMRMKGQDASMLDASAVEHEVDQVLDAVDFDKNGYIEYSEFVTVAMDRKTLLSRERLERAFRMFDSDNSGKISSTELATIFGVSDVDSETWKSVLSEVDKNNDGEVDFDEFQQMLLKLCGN

Compound: [Ca+2].[Cl-].[Cl-] [CaCl2]
free CaCl2 at maximal activity [1]: approximately 18 μM

Compound: C#CCn1nc(Cc2cccc3ccccc23)c2c(N)ncnc21 [Compound 5b, 3-(naphthalen-1-ylmethyl)-1-(prop-2-ynyl)-1H-pyrazolo[3,4-d]pyrimidin-4-amine]
IC50 [1]: 0.99 µM

GI50 [2]: > 10 µM
GI50 [3]: > 10 µM
GI50 [4]: > 10 µM
GI50 [5]: > 10 µM
Compound: CC(C)(C)n1nc(Cc2cccc3ccccc23)c2c(N)ncnc21 [Compound 5d, 1-tert-butyl-3-(naphthalen-1-ylmethyl)-1H-pyrazolo[3,4-d]pyrimidin-4-amine]

GI50 [2]: > 10 µM
GI50 [3]: > 10 µM
GI50 [4]: > 10 µM
GI50 [5]: > 10 µM
Compound: Nc1ncnc2c1c(Cc1cccc3ccccc13)nn2CC1CCNCC1 [Compound 5h, 3-(naphthalen-1-ylmethyl)-1-(piperidin-4-ylmethyl)-1H-pyrazolo[3,4-d]pyrimidin-4-amine]

Compound: CC(C)n1nc(-c2ccc(Cl)cc2)c2c(N)ncnc21 [Compound 7a, 3-(4-chlorophenyl)-1-isopropyl-1H-pyrazolo[3,4-d]pyrimidin-4-amine]
selectivity TgCDPK1 versus CpCDPK1 (in words) [1]: more potent against TgCDPK1 than CpCDPK1

Compound: CSc1cccc(-c2nn(C(C)C)c3ncnc(N)c23)c1 [Compound 7ab, 1-isopropyl-3-(3-(methylthio)phenyl)-1H-pyrazolo[3,4-d]pyrimidin-4-amine]
selectivity TgCDPK1 versus CpCDPK1 (in words) [1]: more potent against TgCDPK1 than CpCDPK1

Compound: CC(C)n1nc(-c2cccc(Cl)c2)c2c(N)ncnc21 [Compound 7b, 3-(3-chlorophenyl)-1-isopropyl-1H-pyrazolo[3,4-d]pyrimidin-4-amine]
selectivity TgCDPK1 versus CpCDPK1 (in words) [1]: more potent against TgCDPK1 than CpCDPK1

Compound: CC(C)n1nc(-c2ccc(Cl)c(Cl)c2)c2c(N)ncnc21 [Compound 7c, 3-(3,4-dichlorophenyl)-1-isopropyl-1H-pyrazolo[3,4-d]pyrimidin-4-amine]
inhibition of TgCDPK1 (in words) [1]: potent against both enzymes

Compound: CC(C)c1ccc(-c2nn(C(C)C)c3ncnc(N)c23)cc1 [Compound 7d, 1-isopropyl-3-(4-isopropylphenyl)-1H-pyrazolo[3,4-d]pyrimidin-4-amine]
selectivity TgCDPK1 versus CpCDPK1 (in words) [1]: more potent against TgCDPK1 than CpCDPK1

Compound: Cc1cc(-c2nn(C(C)C)c3ncnc(N)c23)ccc1F [Compound 7i, 3-(4-fluoro-3-methylphenyl)-1-isopropyl-1H-pyrazolo[3,4-d]pyrimidin-4-amine]
inhibition of TgCDPK1 (in words) [1]: potent against both enzymes

Compound: COc1ccc(-c2nn(C(C)C)c3ncnc(N)c23)cc1OC [Compound 7k, 3-(3,4-dimethoxyphenyl)-1-isopropyl-1H-pyrazolo[3,4-d]pyrimidin-4-amine]
inhibition of TgCDPK1 (in words) [1]: potent against both enzymes

Compound: COc1cc(-c2nn(C(C)C)c3ncnc(N)c23)cc(OC)c1OC [Compound 7l, 1-isopropyl-3-(3,4,5-trimethoxyphenyl)-1H-pyrazolo[3,4-d]pyrimidin-4-amine]
selectivity TgCDPK1 versus CpCDPK1 (in words) [1]: equipotent or slightly selective for CpCDPK1

Compound: COc1ccc(-c2nn(C(C)C)c3ncnc(N)c23)cc1C [Compound 7m, 1-isopropyl-3-(4-methoxy-3-methylphenyl)-1H-pyrazolo[3,4-d]pyrimidin-4-amine]
inhibition of TgCDPK1 (in words) [1]: potent against both enzymes

GI50 [2]: ~10 µM
GI50 [3]: > 10 µM
GI50 [4]: > 10 µM
GI50 [5]: > 10 µM
Compound: CC(C)n1nc(-c2ccc3ccccc3c2)c2c(N)ncnc21 [Compound 7p, 1-isopropyl-3-(naphthalen-2-yl)-1H-pyrazolo[3,4-d]pyrimidin-4-amine]

GI50 [2]: > 10 µM
GI50 [3]: > 10 µM
GI50 [4]: > 10 µM
GI50 [5]: > 10 µM
Compound: COc1ccc2cc(-c3nn(C(C)C)c4ncnc(N)c34)ccc2c1 [Compound 7q, 1-isopropyl-3-(6-methoxynaphthalen-2-yl)-1H-pyrazolo[3,4-d]pyrimidin-4-amine]
EC50 [6]: > 10 µM

Compound: CCOc1ccc2cc(-c3nn(C(C)C)c4ncnc(N)c34)ccc2c1 [Compound 7r, 3-(6-ethoxynaphthalen-2-yl)-1-isopropyl-1H-pyrazolo[3,4-d]pyrimidin-4-amine]
EC50 [6]: > 50 µM

Compound: CCCOc1ccc2cc(-c3nn(CC4CCNCC4)c4ncnc(N)c34)ccc2c1 [Compound 33, 1-(piperidin-4-ylmethyl)-3-(6-propoxynaphthalen-2-yl)-1H-pyrazolo[3,4-d]pyrimidin-4-amine]
Observed HFF Toxicity (T at concentration) [7]: T at 100 μM

Compound: Nc1ncnc2c1c(-c1ccc3cc(OCc4ccccc4)ccc3c1)nn2CC1CCNCC1 [Compound 34, 3-(6-(benzyloxy)naphthalen-2-yl)-1-(piperidin-4-ylmethyl)-1H-pyrazolo[3,4-d]pyrimidin-4-amine]
Observed HFF Toxicity (T at concentration) [7]: T at 100 μM

Compound: C=CCOc1ccc2cc(-c3nn(CC4CCNCC4)c4ncnc(N)c34)ccc2c1 [Compound 36, 3-(6-(allyloxy)naphthalen-2-yl)-1-(piperidin-4-ylmethyl)-1H-pyrazolo[3,4-d]pyrimidin-4-amine]
Observed HFF Toxicity (T at concentration) [7]: T at 100 μM

Compound: Nc1ncnc2c1c(-c1ccc3cc(OCc4ccccc4Cl)ccc3c1)nn2CC1CCNCC1 [Compound 37, 3-(6-(2-chlorobenzyloxy)naphthalen-2-yl)-1-(piperidin-4-ylmethyl)-1H-pyrazolo[3,4-d]pyrimidin-4-amine]
Observed HFF Toxicity (T at concentration) [7]: T at 100 μM

Compound: Nc1ncnc2c1c(-c1ccc3cc(OCc4cccc(Cl)c4)ccc3c1)nn2CC1CCNCC1 [Compound 38, 3-(6-(3-chlorobenzyloxy)naphthalen-2-yl)-1-(piperidin-4-ylmethyl)-1H-pyrazolo[3,4-d]pyrimidin-4-amine]
Observed HFF Toxicity (T at concentration) [7]: T at 100 μM

Compound: CC(C)n1nc(-c2ccc3cc(OCc4ccccc4)ccc3c2)c2c(N)ncnc21 [Compound 40, 3-(6-(benzyloxy)naphthalen-2-yl)-1-isopropyl-1H-pyrazolo[3,4-d]pyrimidin-4-amine]
Observed HFF Toxicity (T at concentration) [7]: T at 100 μM

Compound: C=CCOc1ccc2cc(-c3nn(C(C)C)c4ncnc(N)c34)ccc2c1 [Compound 41, 3-(6-(allyloxy)naphthalen-2-yl)-1-isopropyl-1H-pyrazolo[3,4-d]pyrimidin-4-amine]
Observed HFF Toxicity (T at concentration) [7]: T at 100 μM

Compound: CCCCOc1ccc2cc(-c3nn(C(C)C)c4ncnc(N)c34)ccc2c1 [Compound 42, 3-(6-butoxynaphthalen-2-yl)-1-isopropyl-1H-pyrazolo[3,4-d]pyrimidin-4-amine]
Observed HFF Toxicity (T at concentration) [7]: T at 100 μM

Compound: CC(C)COc1ccc2cc(-c3nn(CC4CCNCC4)c4ncnc(N)c34)ccc2c1 [Compound 44, 3-(6-isobutoxynaphthalen-2-yl)-1-(piperidin-4-ylmethyl)-1H-pyrazolo[3,4-d]pyrimidin-4-amine]
Observed HFF Toxicity (T at concentration) [7]: T at 100 μM

Compound: CC(C)(C)C(=O)Nc1ccc(-c2nn(C(C)(C)C)c3ncnc(N)c23)cc1 [Compound 60, N-(4-(4-amino-1-tert-butyl-1H-pyrazolo[3,4-d]pyrimidin-3-yl)phenyl)pivalamide]
EC50 [6]: > 10 µM

Compound: CCCC(=O)Nc1ccc(-c2nn(C(C)(C)C)c3ncnc(N)c23)cc1 [Compound 61, N-(4-(4-amino-1-tert-butyl-1H-pyrazolo[3,4-d]pyrimidin-3-yl)phenyl)butyramide]
EC50 [6]: 7 µM

Compound: CC(C)CC(=O)Nc1ccc(-c2nn(C(C)(C)C)c3ncnc(N)c23)cc1 [Compound 62, N-(4-(4-amino-1-tert-butyl-1H-pyrazolo[3,4-d]pyrimidin-3-yl)phenyl)-3-methylbutanamide]
EC50 [6]: > 10 µM

Compound: CC(C)(C)n1nc(-c2ccc(NC(=O)C3CCCC3)cc2)c2c(N)ncnc21 [Compound 63, N-(4-(4-amino-1-tert-butyl-1H-pyrazolo[3,4-d]pyrimidin-3-yl)phenyl)cyclopentanecarboxamide]
EC50 [6]: > 10 µM

Compound: CCOc1ccc2cc(-c3nc(C(C)(C)C)n4ccnc(N)c34)ccc2c1 [Compound 69, 3-tert-butyl-1-(6-ethoxynaphthalen-2-yl)imidazo[1,5-a]pyrazin-8-amine]
Observed HFF Toxicity (T at concentration) [7]: T at 25 μM

Compound: Nc1ncnc2c1c(-c1ccc3oc(-c4ccccc4)nc3c1)nn2CC1CCNCC1 [Compound 120]
Observed HFF Toxicity (T at concentration) [7]: T at 25 μM

Compound: [Ca+2] [calcium]
EC50 ([1]; read-out: calcium concentration giving 50% of TgCDPK1 kinase activity): 4.7 µM
